Values quoted from earlier work in US9339478B2, “Pharmaceutical formulation” (RECKITT BENCKISER LLC, priority 2011, dated 2016).

Conditions: per dose, typical

SMILES: COc1ccc2c3c1O[C@H]1[C@@H](O)C=C[C@H]4[C@@H](C2)N(C)CC[C@@]341 [codeine]
- period of therapeutic effect / relief provided by a dose: 2.5 to 3 h
